Test results reported in patent US3963716A, “Novel 1-phthalazone derivative, a process for its preparation and a pharmaceutical composition containing it” (priority 1973, dated 1976).
Read-outs that look alike come from different tables or passages of the source.

Experiments:
human platelet = human platelet aggregation in vitro induced by ADP or adrenaline (CPRP); assay type: cell-based; settings: 200 s, intensity with compound vs saline; for activity at 40 µg/mL: 40 μg/ml; for activity at 80 µg/mL: 80 μg/ml; for activity at 300 µg/mL: 300 μg/ml
Method: Samples of human CPRP (citrated platelet-rich plasma) were incubated at 37°C. for 200 sec. with 1/10 volume of saline containing various amount of the compound to be tested. To the mixture was then added ADP (3μMole) or adrenaline (1 μg/ml). Intensity of primary and secondary aggregation was measured with a platelet aggregation meter (Chrono-Log, Model 300).
Intensity of ADP- or adrenaline-induced aggregation of each sample, which was incubated with the compound, was compared with that of the same sample incubated with saline. The ratio was expressed as a percentage of intensity of aggregation with the compound against one with saline.
The intensity of primary and secondary aggregation of platelets was measured by the procedure described in H. Yamazaki, T. Sano, et al.; title[Platelet Functions in Thromboembolic Disorders] Thrombosis et Diatheses Haemorrhagica "in press" and the references cited therein.

[1] = tested on: cyclic AMP phosphodiesterase; test: inhibition of cyclic AMP phosphodiesterase, human platelet; assay type: biochemical; settings: 50% inhibition of cyclic AMP phosphodiesterase; read-out: I50, Platelet (human)
Method: (§1) The procedure of the experiment was carried out in accordance with the method described in H. Hidaka and M. Shibuya: title "A new assay of cyclic nucleotide phosphodiesterase and its application to humans", Biochemical Medicine, (in press).

[2] = target: cyclic AMP phosphodiesterase; test: inhibition of cyclic AMP phosphodiesterase, aortic wall media (rabbit); assay type: biochemical; settings: 50% inhibition of cyclic AMP phosphodiesterase; read-out: I50, Aortic Wall, Media (rabbit)
Method: as §1

[3] = read-out: Inhibition ratio, primary aggregation, ADP 3 μM
[4] = read-out: Inhibition ratio, primary aggregation, Adrenaline 1μg/ml
[5] = read-out: Inhibition ratio, secondary aggregation, ADP 3 μM
[6] = read-out: Inhibition ratio, secondary aggregation, Adrenaline 1μg/ml

SMILES	activity at 40 µg/mL (human platelet; [3]) [%]	activity at 40 µg/mL (human platelet; [4]) [%]	activity at 40 µg/mL (human platelet; [5]) [%]	activity at 40 µg/mL (human platelet; [6]) [%]	activity at 80 µg/mL (human platelet; [3]) [%]	activity at 80 µg/mL (human platelet; [4]) [%]	activity at 80 µg/mL (human platelet; [5]) [%]	activity at 80 µg/mL (human platelet; [6]) [%]	activity at 300 µg/mL (human platelet; [3]) [%]	activity at 300 µg/mL (human platelet; [4]) [%]	activity at 300 µg/mL (human platelet; [5]) [%]	activity at 300 µg/mL (human platelet; [6]) [%]	IC50 [1] [µM]	IC50 [2] [µM]
CC(=O)Oc1ccccc1C(=O)O [Acetylsalicylic acid]	98.9 ± 3.4	106 ± 3.3	78 ± 9.9	45 ± 7.8	95.7 ± 1.8	95.6 ± 5.2	70.2 ± 10.1	46.5 ± 7.9	109 ± 3.6	108 ± 2.6	75.5 ± 5.9	62.7 ± 10.7	–	–
Cn1c(=O)c2c(ncn2C)n(C)c1=O [caffeine]	–	–	–	–	–	–	–	–	–	–	–	–	350	460
